Data taken from PubChem BioAssay AID1996.
Converted amounts (≈) assume the structure as drawn.

Conditions: buffer; pH 7.4; 200.0 µM

SMILES	solubility kinetic
N#Cc1sc(NCc2cccc(Cl)c2)nc1Cl	2.4 µg/mL (≈ 8.45 µM)
N=C1c2ccccc2CN1c1ccc(F)c([N+](=O)[O-])c1	> 40.7 µg/mL
CNC(=O)COC(=O)CNC(=O)c1cc(Cl)cc([N+](=O)[O-])c1	> 49.5 µg/mL
COc1ccc(C(=O)CCC(=O)NCCc2ccccc2F)cc1	16.9 µg/mL (≈ 51.3 µM)
CCc1ccccc1NC(=O)c1ccc(OCc2c(C)noc2C)cc1	3.7 µg/mL (≈ 10.6 µM)
O=C1CCCN1CN(C(=O)c1ccccc1)c1ccccc1	> 44.2 µg/mL
O=c1oc2ccccc2c(Nc2ccc(F)cc2)c1[N+](=O)[O-]	8.4 µg/mL (≈ 28 µM)
CC(C)c1ccccc1NC(=O)CC1(CC(=O)O)CCCC1	> 45.5 µg/mL
COc1cc2c(cc1OC)C(c1ccccc1Cl)N(C)CC2 (stereo not drawn)	36.4 µg/mL (≈ 115 µM)
Cc1cc(C)nc(Nc2ccccc2F)n1.Cl	26.4 µg/mL
O=C(Nc1ccccc1)NC1CCN(Cc2c(F)cccc2Cl)CC1	6.8 µg/mL (≈ 18.8 µM)
CCN(CC)Cc1c(O)ccc2c(=O)c(-c3ccccc3OC)coc12	> 53 µg/mL
CCc1c(C)sc(NC(=S)Nc2nc(C)cc(C)n2)c1C(=O)OC	< 0.2 µg/mL
O=C(Nc1nc2ccccc2s1)c1ccc(F)cc1	0.6 µg/mL (≈ 2.2 µM)
O=C1c2cccc3cccc(c23)N1Cc1cccc(F)c1	2.6 µg/mL (≈ 9.38 µM)
C#CC(C)(C)NC(=S)NC1CC2C=CC1C2 (stereo not drawn)	28 µg/mL (≈ 119 µM)
Cc1ccc(OCCCC(=O)ON=C(N)c2ccccc2C)cc1	19.9 µg/mL (≈ 61 µM)
CCCN(CC(=O)Nc1ccc(F)c(F)c1F)C(=O)c1ccc2c(c1)NC(=O)CS2	11.2 µg/mL (≈ 25.6 µM)
Cc1cc(N2CCC(C)CC2)nc(-c2ccccc2O)n1	< 0.2 µg/mL
C=CCNc1nc(Cl)nc(Nc2ccccc2)n1	2.2 µg/mL (≈ 8.41 µM)
CSc1ncccc1C(=O)NC1CCCCCCC1	21.7 µg/mL (≈ 77.9 µM)
Cc1ccc(C2(C)NC(=O)N(CC(=O)N(c3ccccc3)C3CCS(=O)(=O)C3)C2=O)cc1 (stereo not drawn)	> 68.3 µg/mL

SMILES	solubility kinetic
COc1cc(C)c(S(=O)(=O)NCCCn2ccnc2)cc1C	39.6 µg/mL (≈ 122 µM)
COc1ccc(C(=O)Nc2cc(C)c(NC(=O)c3ccccn3)cn2)cc1	1.9 µg/mL (≈ 5.24 µM)
CS(=O)(=O)c1ccc(C(=O)OCC(=O)NC(=O)C2COc3ccccc3O2)cc1[N+](=O)[O-] (stereo not drawn)	39.2 µg/mL (≈ 84.4 µM)
O=C(CSc1ncnc2ccccc12)NCCc1ccccc1	> 48.5 µg/mL
CC(C)N1CCN(Cc2cc3c(cc2Cl)OCO3)CC1CCO (stereo not drawn)	39.9 µg/mL (≈ 117 µM)
O=c1[nH]cc(N2CCCCCC2)c(=O)[nH]1	> 31.4 µg/mL
COC(=O)[C@H](Cc1ccccc1)NC(=O)NC(C)CCc1ccccc1 (stereo partly drawn)	49.8 µg/mL (≈ 140 µM)
O=S(=O)(c1ccccc1)N(Cc1cccc(F)c1)c1ccccc1	< 0.7 µg/mL
CC1(C)Cc2cccc(C(=O)NC3CCN(Cc4ccccc4)CC3)c2O1	53.2 µg/mL (≈ 146 µM)
O=C1CNC(=O)/C1=C/c1ccc(Br)cc1	26.9 µg/mL (≈ 101 µM)
CN1CCN(c2ccc([N+](=O)[O-])c(SCCO)c2)CC1	> 44.6 µg/mL
CS(=O)(=O)c1ccc(C(=O)N2CC(=O)Nc3ccccc32)cc1	> 49.6 µg/mL
Cc1ccc(C(=O)CN2C(=O)NC3(CCCCC3C)C2=O)s1 (stereo not drawn)	33.2 µg/mL (≈ 104 µM)
Cc1ccc(OC(=O)c2ccc(Cl)c([N+](=O)[O-])c2)cn1	42.8 µg/mL (≈ 146 µM)
CCOc1ccccc1NC(=O)C(C)SCc1ccccc1 (stereo not drawn)	1.4 µg/mL (≈ 4.44 µM)
CCC1CCCCN1C(=O)COc1ccc(F)cc1 (stereo not drawn)	38.1 µg/mL (≈ 144 µM)
O=c1[nH]c(-c2ccccc2)nc(-c2ccccc2)c1Cl	2.4 µg/mL (≈ 8.49 µM)
CCCCN(C)C(=O)c1cc2c(s1)-c1ccccc1S(=O)(=O)C2	> 52.4 µg/mL
OC1CCN(CC(O)C(F)(F)F)CC1 (stereo not drawn)	> 32 µg/mL
CCC(Sc1nc2ccccc2o1)C(=O)O (stereo not drawn)	35.2 µg/mL (≈ 148 µM)
O=C(Cc1ccccc1)NCC(=O)N1CCCC1	> 36.9 µg/mL
